Experimental data published in patent US20060116389A1, “Antibacterial oxazolidinones” (ASTRA ZENECA AB, priority 2002, published 2006).
In brackets after ≈: the same amount, converted by molar mass.

Key:
Assay type in all cases: cell-based
[1] = system: Moraxella catarrhalis; test: MIC, Mueller-Hinton broth supplemented with hemin and NAD; settings: 24 hours, 37° C., 5×10^4 CFU/well
Description: (§1) The following results were obtained on a standard in-vitro test system. The activity is described in terms of the minimum inhibitory concentration (MIC) determined by the agar-dilution technique with an inoculum size of 10^4 CFU/spot. Typically, compounds are active in the range 0.01 to 256 μg/ml.
(§2) Streptococci and enterococci were tested on agar supplemented with 5% defibrinated horse blood, an inoculum of 10^4 CFU/spot and an incubation temperature of 37° C. in an atmosphere of 5% carbon dioxide for 48 hours—blood is required for the growth of some of the test organisms. Fastidious Gram negative organisms were tested in Mueller-Hinton broth, supplemented with hemin and NAD, grown aerobically for 24 hours at 37° C., and with an innoculum of 5×10^4 CFU/well.

[2] = system: Haemophilus influenzae; test: as above; settings: 24 hours, 37° C., 5×10^4 CFU/well
Description: as §1, §2

[3] = system: Enterococcus faecium; test: MIC, agar supplemented with 5% defibrinated horse blood; settings: agar + 5% horse blood, 10^4 CFU/spot, 37° C., 5% carbon dioxide, 48 hours
Description: as §1, §2

[4] = system: Streptococcus pneumoniae; test: as above; settings: agar + 5% horse blood, 10^4 CFU/spot, 37° C., 5% carbon dioxide, 48 hours
Description: as §1, §2

[5] = system: Linezolid Resistant Streptococcus pneumoniae; test: as above; settings: agar + 5% horse blood, 48 hours
Description: as §1, §2

[6] = system: Staphylococcus aureus MSQS (methicillin sensitive and quinolone sensitive); test: MIC, agar-dilution, standard in-vitro test system; settings: 10^4 CFU/spot, 37° C., 24 hours
Description: as §1
(§3) Staphylococci were tested on agar, using an inoculum of 10^4 CFU/spot and an incubation temperature of 37° C. for 24 hours—standard test conditions for the expression of methicillin resistance.

[7] = system: Staphylococcus aureus MRQR (methicillin resistant and quinolone resistant); test: MIC, agar-dilution, standard in-vitro test system; settings: 10^4 CFU/spot, 37° C., 24 hours
Description: as §1, §3

Compound Cn1nnc(-c2ccc(-c3ccc(N4C[C@H](CNc5ccon5)OC4=O)cc3F)cn2)n1 [Example 2] has an MIC [1] of 0.5 µg/mL (≈ 1.15 µM), an MIC [2] of 64 µg/mL (≈ 147 µM) and an MIC [3] of 0.5 µg/mL. It also gave an MIC [4] of 0.13 µg/mL, an MIC [5] of 2 µg/mL and an MIC [6] of 0.5 µg/mL (≈ 1.15 µM). It also gave an MIC [7] of 0.5 µg/mL (≈ 1.15 µM).
